How the values were obtained:
[1] = Stability test in liver microsomes; assay type: in vitro ADME, CD-1 mouse; conditions: mouse liver microsomes, 0.5 mg/mL, 1.0 µM substrate
Description: Phase I metabolic stability of the test compounds in liver microsomes of CD-1 mice, Sprague-Dawley rats, and humans was assessed.
The animal and human liver microsomes used in the test system were purchased from Xenotech, Corning, or other qualified suppliers and stored in a freezer at a temperature below -60 °C prior to use. The information of the animal and human liver microsomes used was as follows:
The test samples and the reference compounds were separately incubated with animal and human liver microsomes at 37±1 °C for a period of incubation time of up to 60 min. The samples were taken out at the indicated time points, and the reaction was stopped with acetonitrile or another organic solvent containing an internal standard. After centrifugation, the resulting supernatants were assayed by the liquid chromatography-tandem mass spectrometry (LC-MS/MS) method.
Microsomes of each species were diluted into a 2× working solution with a 100 mM potassium phosphate buffer. […]
Incubation was performed in a 96-well plate. Eight incubation plates were prepared and designated T0, T5, T15, T30, T45, T60, Blank60, and NCF60, respectively. The first 6 plates corresponded to reaction time points of 0 min, 5 min, 15 min, 30 min, 45 min, and 60 min, respectively. No test sample or reference compound was added to the Blank60 plate, and samples were taken after 60 min of incubation. In the NCF60 plate, incubation was performed for 60 min using the potassium phosphate buffer instead of the NADPH regeneration system solution. Three replicates were made for samples in all conditions.
The microsomes and the test sample or reference compound were mixed, and then the incubation plates Blank60, T5, T15, T30, T45, and T60 except for T0 and NCF60 were placed in a 37 °C water bath for pre-incubation for about 10 min. In the incubation plate T0, a stop solution was first added, followed by the addition of the NADPH regeneration system working solution, and 98 µL of the potassium phosphate buffer was added to each sample well of the incubation plate NCF60 to initiate the reaction. After the pre-incubation of the incubation plates Blank60, T5, T15, T30, T45, and T60 was completed, 98 µL of the NADPH regeneration system working solution was added to each sample well to initiate the reaction. The reaction temperature was 37±1 °C, the final volume of the reaction was 200 µL, and the reaction system included 0.5 mg/mL microsomes, 1.0 µM substrate, 1 mM NADP, 6 mM ISO, and 1 unit/mL IDH.
At 5 min, 15 min, 30 min, 45 min, and 60 min, a cold stop solution containing an internal standard was added to the reaction plate to stop the reaction.
All the reaction plates after the reaction was stopped were shaken well and centrifuged at 3220× g at 4 °C for 20 min. After the supernatant was diluted at a certain ratio, LC-MS/MS analysis was performed.
Sample analysis was performed by the liquid chromatography-tandem mass spectrometry (LC-MS/MS) method without standard curves and quality control samples. Semi-quantitative determination was performed according to the ratio of the analyte peak area to the internal standard peak area. The retention times of the analyte and internal standard, the chromatogram acquisition, and chromatogram integration were processed using the Analyst software (Sciex, Framingham, Massachusetts, USA).
According to the well stir model, the hepatic intrinsic clearance and hepatic clearance can be converted through the following formula. CL(liver) = (CLint(liver)×Qh)/(CLint(liver)+Qh) [formula]

[2] = Pharmacokinetic test in rats; assay type: in vivo; conditions: rat, plasma, SD rats; for bioavailability: PO 10 mg/kg vs IV 2 mg/kg
Description: In this experimental example, the pharmacokinetic behavior of the test compounds after administration by intravenous injection (IV) and oral gavage (PO) in SD rats was tested. Preparation of formulations for administration referred to the low-dose pharmacokinetic test in mice.
On the day of administration, rats were weighed for actual body weight, and the administration volume was calculated. Each compound was tested in two groups with 3 rats in each group; one group was subjected to administration by single intravenous injection, and the other group was subjected to administration by single gavage. The whole blood samples were collected via the jugular vein at prescribed time points (0.25 h, 0.5 h, 1 h, 2 h, 4 h, 8 h, and 24 h after administration). After the blood sample collection, the samples were immediately transferred to labeled commercial sample tubes containing K2-EDTA (0.85-1.15 mg), followed by centrifugation (3200× g, 4 °C, 10 min) and plasma collection. The plasma was transferred to a pre-cooled centrifuge tube, frozen in dry ice, and then stored in an ultra-low temperature freezer at -60 °C or lower until the LC-MS/MS analysis was performed.
Plasma concentrations were determined by the LC-MS/MS method. Plasma drug concentration data for the compounds were processed using a non-compartmental model in the WinNonlin Version 6.3 (Pharsight, Mountain View, CA) pharmacokinetic software. The relevant pharmacokinetic parameters were calculated by a linear-log trapezoidal method.

Compound | half-life at 1 µM [1] [h] | AUC(0-t) ([2]; IV 2 mg/kg) [µM·h] | MRT ([2]; IV 2 mg/kg) [h] | clearance ([2]; IV 2 mg/kg) [mL/min/kg] | half-life ([2]; IV 2 mg/kg) [h] | AUC(0-t) ([2]; PO 10 mg/kg) [µM·h] | MRT ([2]; PO 10 mg/kg) [h] | half-life ([2]; PO 10 mg/kg) [h] | bioavailability [2] [%]
Cc1ccc(Oc2ccc(C(F)(F)F)cc2)c2ccc(P(C)(C)=O)cc12 [Example 24] | 1.98 |  |  |  |  |  |  |  | 
CP(C)(=O)c1ccc(Nc2ccc(C(F)(F)F)cc2)c(-c2ncccn2)c1 [Example 12] | > 2.42 | 34.9 | 76.3 | 1.17 | 54.2 | 114 | 24.9 | 21.8 | 65
CP(C)(=O)c1ccc2c(c1)c1ccccc1n2-c1ccc(C(F)(F)F)cc1 [Example 1] | > 2.42 | 113 | 46.3 | 0.333 | 32.4 | 605 | 69.9 | 66.9 | 107
CP(C)(=O)c1ccc2c(Oc3ccc(C(F)(F)F)cc3)cccc2c1 [Example 7] | > 2.42 | 44.5 | 20.5 | 2 | 15.7 | 308 | 28.5 | 19.5 | 142
CP(C)(=O)c1ccc(Nc2ccc(C(F)(F)F)cc2)c(-c2ccccn2)c1 [Example 10] | > 2.42 | 21.7 | 26.5 | 3 | 19 | 152 | 25.7 | 17.8 | 140
Cn1cnc(-c2cc(P(C)(C)=O)cnc2Nc2ccc(C(F)(F)F)cc2)c1 [Example 8] | > 2.42 | 8.89 | 7.8 | 9 | 6.2 | 59.3 | 20.6 | 14.7 | 133
Cn1cnc(-c2cc(P(C)(C)=O)ccc2Nc2ccc(C(F)(F)F)cc2)c1 [Example 14] | > 2.42 | 16.9 | 10.2 | 4.67 | 8.1 | 83.2 | 15 | 10.9 | 98
CP(C)(=O)c1cnc(Nc2ccc(C(F)(F)F)cc2)c(-c2cn3c(n2)CCC3)c1 [Example 22] | > 2.42 | 6.42 | 7.6 | 11 | 5.8 | 32.2 | 9.6 | 7.3 | 95

Reference: patent EP4596561A1, “PHOSPHORUS-CONTAINING COMPOUND, PHARMACEUTICAL COMPOSITION AND USE THEREOF” (Suzhou Genhouse Bio Co., Ltd., priority 2022, dated 2024)
